pEC50: −log10 of the molar value. Where two headings read alike, the source gives them in different places. Numbered stars: 1 amine (or outer) side, 2 acyl side, 3 side chain; on linkers, the order of the positions; unused ones are H or OH. Square brackets hold non-standard residues; d marks the D form. Side chains are listed from the residue outwards. * marks the point of attachment. C18 diacid = O=C(O)CCCCCCCCCCCCCCCCC(=O)*; C16 diacid = O=C(O)CCCCCCCCCCCCCCC(=O)*; γGlu = O=C(O)[C@H](CCC(=O)[*:2])N[*:1]; AEEA = NCCOCCOCC(=O)O; Aib = CC(C)(N)C(=O)O
How the values were obtained:
Assay type in all cases: cell-based
[1] = target: T1, human GLP-1 receptor (hGLP-1R) (Homo sapiens, UniProt P43220); assay: GLP-1 receptor assay, method A (CRE-luciferase reporter, BHK cells)
T1 construct: expressed in transfected cells
Method: (§1) To assess how the activation of the receptors is potentially influenced by the presence of human serum albumin (HSA), the in vitro assays were performed in the absence of HSA and presence of 1% (w/v) HSA.
Cells at approximately 80-90% confluence were washed once in PBS (Gibco 14190-094) and loosened from the cell flasks with Versene (Gibco, 15040-033). […] Cells were aliquoted and stored at −180° C. until use.
(§2) The assay buffer consisted of DMEM without phenol red (Gibco, 11880-028) supplemented with 1× GlutaMAX (Gibco, 35050-038), 10 mM HEPES (Gibco, 15630-056), 1% (w/v) ovalbumin (Sigma, A5503) and 0.1% (v/v) Pluronic F-68 (Gibco, 24040-032) either with HSA or without HSA (Sigma, A9511).
Frozen stocks of hGLP-1R BHK CRE-Luc cells were thawed in a 37° C. water bath, washed once in PBS (Gibco 14190-094) and diluted to 1.5×10^6 (1.5E+6) cells/mL in assay buffer with or without 2% (w/v) HSA (Sigma, A9511). […] The assay plates were incubated for 3 hours at 37° C. in 5% CO2, left at room temperature for 5 minutes after which 100 μL steadylite Plus™ (PerkinElmer/Revvity, 6066759) was added to each well. Plates were sealed and incubated at room temperature with gentle shaking for 30 minutes while protected from light. Luminescence was detected on a luminescence plate reader e.g., a Synergy 2 (BioTek).

[2] = target: T2, human GIP receptor (hGIPR) (Homo sapiens, UniProt P48546); assay: GIP receptor assay, method A (CRE-luciferase reporter, BHK cells)
T2 construct: expressed in transfected cells
T2 sequence (P48546 22-466): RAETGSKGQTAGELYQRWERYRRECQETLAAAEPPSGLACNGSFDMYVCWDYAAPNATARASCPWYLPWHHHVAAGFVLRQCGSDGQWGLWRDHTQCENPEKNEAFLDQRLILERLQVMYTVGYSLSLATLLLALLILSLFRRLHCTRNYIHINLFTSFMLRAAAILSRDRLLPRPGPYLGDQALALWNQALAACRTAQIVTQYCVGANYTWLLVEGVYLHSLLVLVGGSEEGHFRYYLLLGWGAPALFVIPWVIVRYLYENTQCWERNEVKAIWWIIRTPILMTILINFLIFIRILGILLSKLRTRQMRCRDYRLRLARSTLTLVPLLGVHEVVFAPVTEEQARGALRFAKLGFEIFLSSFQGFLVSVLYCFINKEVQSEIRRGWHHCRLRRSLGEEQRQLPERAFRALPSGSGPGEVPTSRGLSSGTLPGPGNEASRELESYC
Method: To assess how the activation of the receptors is potentially influenced by the presence of human serum albumin (HSA), the in vitro assays were performed in the absence of HSA and presence of 1% (w/v) HSA. Unless stated otherwise the reference to the “GIP receptor assay as described in Example 4” throughout the specification shall refer to the described herein assay procedure method A (hGIPR assay) in the absence of HSA.
Activation of the human GIP receptor leads to increased intra-cellular concentrations of cyclic AMP (cAMP) and the consequent transcription activation from promoters containing multiple copies of the cAMP response element (CRE). It is thus possible to measure GIP receptor activity using a CRE-luciferase reporter gene introduced into Baby Hamster Kidney (BHK) cells co-expressing the human GIP receptor.
Cells at about 80-90% confluency were washed once with PBS (Gibco 14190-094) and detached from the cell flasks with Versene (Gibco, 15040-066). After centrifugation, the cells were counted, resuspended and diluted to approximately 1.5-3.0×10^6 (1.5E+6 to 3.0E+6) cells/mL in Recovery Cell Culture Freezing Medium (Gibco, 12648-010) and stored at −180° C. in suitable aliquots until use.
as §2
On the day before the assay hGIPR BHK Cre-Luc cells were thawed and plated out in 96 well Culture Plates (PerkinElmer/Revvity, 6005680) at 5.0×10^3 (5.0E+3) cells/well in growth medium as described above. The plates were then incubated for 21-23 hours at 37° C. with 5% CO2. On the day of the assay GLP-1-/GIP-/amylin-receptor tri-agonists or reference compounds were diluted in assay buffer using a 7-point, 10-fold titration plus a blank (absence of compound). Each compound was diluted and tested in duplicates in each experiment. In the plates containing the cells the growth medium was removed, and cells were washed twice with 100 μL PBS (Gibco 14190-094). 50 μL of the test compound dilutions were added to the plates containing cells preceded by 50 μL assay buffer with or without 2% (w/v) HSA (Sigma, A9511). The cell plates were incubated for 3 hours in a 5% CO2 incubator at 37° C. The plates were then transferred to room temperature followed by addition of 100 μL steadylite Plus™ (PerkinElmer/Revvity, 6066759). The plates were sealed and shaken for 30 minutes at room temperature while protected from light. Finally, luminescence (as an indicator of receptor activation) was measured on a Mithras reader (Berthold Technologies, DE). The EC50-values [pM] were calculated by non-linear curve fitting applying a four-parameter logistic model (Hill slope=“shared value for all datasets”) using GraphPad Prism (GraphPad Software, Boston, MA, USA).

[3] = target: T3, human amylin receptor (hAMYR3) (Homo sapiens, UniProt O60896+P30988); assay: Amylin receptor assay, method A (CRE-luciferase reporter, BHK cells)
T3 construct: host or cells: BHK cells (Hollex-1 line expressing hCTR(a) and CRE-Luc), further transfected with human RAMP3
Method: as §1
It is thus possible to measure hAMYR3 activity using a CRE-luciferase reporter gene introduced into Baby Hamster Kidney (BHK) cells co-expressing the hAMYR3.
The cell line was further transfected with human receptor modifying protein 3 (RAMP3) using standard methods.
After centrifugation, the cell pellet was resuspended and diluted to approximately 2.5-4.0×10^6 (2.5E+6 to 4.0E+6) cells/mL in Recovery™ Cell Culture Freezing Medium (Gibco, 12648-010). Cells were aliquoted and stored at −180° C. until use.
The assay buffer consisted of DMEM without phenol red (Gibco, 11880-028) supplemented with 1× GlutaMAX (Gibco, 35050-038), 10 mM HEPES (Gibco, 15630-056) and 1% (w/v) ovalbumin (Sigma, A5503) either with or without 0.1% (v/v) Pluronic F-68 (Gibco, 24040-032) and either with or without HSA (Sigma, A9511).
The plate was incubated over night at 37° C. in 5% CO2. […] Luminescence was detected on a luminescence plate reader e.g., a Synergy 2 (BioTek).

[4] = method A, absence of HSA, read-out: hGLP-1R Potency, no HSA, EC50
[5] = method A, absence of HSA, read-out: hGIPR Potency, no HSA, EC50
[6] = method A, absence of HSA, read-out: hAMYR3 Potency, no HSA, EC50
[7] = hGLP-1R Potency, 1% HSA, EC50, method A, in the presence of 1% HSA
[8] = hGIPR Potency, 1% HSA, EC50, method A, in the presence of 1% HSA
[9] = hAMYR3 Potency, 1% HSA, EC50, method A, in the presence of 1% HSA

T3 sequence (P30988 25-474): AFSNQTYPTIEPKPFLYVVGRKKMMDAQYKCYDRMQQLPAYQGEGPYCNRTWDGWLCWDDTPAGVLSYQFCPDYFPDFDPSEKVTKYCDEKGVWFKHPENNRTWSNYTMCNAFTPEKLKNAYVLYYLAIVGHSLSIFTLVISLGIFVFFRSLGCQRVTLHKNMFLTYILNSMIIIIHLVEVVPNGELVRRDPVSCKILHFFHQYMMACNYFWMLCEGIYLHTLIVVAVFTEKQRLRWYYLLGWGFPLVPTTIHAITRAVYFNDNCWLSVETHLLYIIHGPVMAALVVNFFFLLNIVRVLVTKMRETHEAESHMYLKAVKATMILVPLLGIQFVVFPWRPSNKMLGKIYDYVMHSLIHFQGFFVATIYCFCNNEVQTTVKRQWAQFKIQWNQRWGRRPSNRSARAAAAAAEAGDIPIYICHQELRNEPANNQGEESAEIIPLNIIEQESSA
T3 sequence (O60896 24-148): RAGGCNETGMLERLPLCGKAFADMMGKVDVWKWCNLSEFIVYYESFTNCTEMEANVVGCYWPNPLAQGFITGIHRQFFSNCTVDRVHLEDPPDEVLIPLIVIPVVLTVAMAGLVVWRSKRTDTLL
T1 sequence (P43220 24-463): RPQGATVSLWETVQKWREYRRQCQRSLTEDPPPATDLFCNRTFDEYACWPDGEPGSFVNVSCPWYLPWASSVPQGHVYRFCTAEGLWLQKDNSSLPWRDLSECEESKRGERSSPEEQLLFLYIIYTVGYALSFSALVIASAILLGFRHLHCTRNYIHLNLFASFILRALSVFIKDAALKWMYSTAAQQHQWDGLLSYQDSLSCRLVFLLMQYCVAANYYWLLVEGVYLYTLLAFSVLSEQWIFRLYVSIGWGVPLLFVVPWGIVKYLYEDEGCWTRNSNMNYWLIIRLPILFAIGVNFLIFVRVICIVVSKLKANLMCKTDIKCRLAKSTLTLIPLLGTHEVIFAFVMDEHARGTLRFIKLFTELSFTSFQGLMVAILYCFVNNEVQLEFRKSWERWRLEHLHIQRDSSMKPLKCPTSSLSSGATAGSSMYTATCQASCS

Substance: Y[Aib]EGTFTSDYSILLEEQAAREFIEWLLAGGPSK([AEEA-AEEA-γGlu-C18 diacid])GEASELSTAQLGRLSAELHRLATLPRTETGSGSP-NH2 [Compound 27]
- pEC50 [1, 4]: 10.58
- pEC50 [2, 5]: 11.68
- pEC50 [3, 6]: 11.42

Substance: H[Aib]HGTFTSDYSILLEEQAAREFIEWLLAGGPSK([AEEA-AEEA-γGlu-C18 diacid])GALAQTLGTNEASELSTAALGRLSAELHRLATLPRTETGSGSP-NH2 [Compound 44]
- pEC50 [1, 4]: 11.43
- pEC50 [2, 5]: 11.20
- pEC50 [3, 6]: 11.42

Substance: Y[Aib]EGTFTSDYSILLEEQAAREFIEWLLAGGPSK([AEEA-AEEA-γGlu-C16 diacid])GASELSTAALGRLSAELHRLATLPRTETGSGSP-NH2 [Compound 20]
- pEC50 [1, 4]: 10.39
- pEC50 [2, 5]: 11.32
- pEC50 [3, 6]: 11.44

Substance: Y[Aib]EGTFTSDYSILLEEQAAREFIEWLLAGGPSK([AEEA-AEEA-γGlu-C18 diacid])GAPPEASELSTAALGRLSAELHELATLPRTETGSGSP-NH2 [Compound 33]
- pEC50 [1, 4]: 10.49
- pEC50 [2, 5]: 11.51
- pEC50 [3, 6]: 10.99

Substance: Y[Aib]EGTFTSDYSILLEEQAAREFIEWLLAGGPSK([AEEA-AEEA-γGlu-C18 diacid])GEASELSTAALGRLSAELHRLATLPRTETGSGSP-NH2 [Compound 19]
- pEC50 [1, 4]: 10.24
- pEC50 [2, 5]: 11.03
- pEC50 [3, 6]: 11.37

Substance: H[Aib]HGTFTSDYSILLEEQAAREFIEWLLAGGPSSGEASHLSTAALGRLSAELHRLATLPK([AEEA-AEEA-γGlu-C18 diacid])TETGSGSP-NH2 [Compound 90]
- pEC50 [1, 7]: 10.41
- pEC50 [1, 4]: 11.38
- pEC50 [2, 8]: 10.49
- pEC50 [2, 5]: 11.27
- pEC50 [3, 9]: 9.74
- pEC50 [3, 6]: 11.26

Substance: Y[Aib]EGTFTSDYSILLEEQAAREFIEWLLAGGPSK([AEEA-AEEA-γGlu-C18 diacid])GEASELSTAALGRLSAELHYLATLPRTETGSGSP-NH2 [Compound 29]
- pEC50 [1, 4]: 10.57
- pEC50 [2, 5]: 11.58
- pEC50 [3, 6]: 11.51

Substance: Y[Aib]EGTFTSDYSILLEEQAAREFIEWLLAGGPSRGAPPPSGGGEASHLSTQTQGRLSAELHK([AEEA-AEEA-γGlu-C18 diacid])LATLPRTETGSGSP-NH2 [Compound 72]
- pEC50 [1, 7]: 10.38
- pEC50 [1, 4]: 10.88
- pEC50 [2, 8]: 11.01
- pEC50 [2, 5]: 11.67
- pEC50 [3, 9]: 9.23
- pEC50 [3, 6]: 11.18

Substance: H[Aib]HGTFTSDYSILLEEQAAREFIEWLLAGGPSGGEASHLSTAQTQRLSAELHK([AEEA-AEEA-γGlu-C18 diacid])LATLPRTETGSGSP-NH2 [Compound 75]
- pEC50 [1, 7]: 10.60
- pEC50 [1, 4]: 11.44
- pEC50 [2, 8]: 10.93
- pEC50 [2, 5]: 11.58
- pEC50 [3, 9]: 9.96
- pEC50 [3, 6]: 11.60

Substance: Y[Aib]EGTFTSDYSILLEEQAAREFIEWLLAGGPSSK([AEEA-AEEA-γGlu-C18 diacid])APPPSGGGEASELSTAALGRLSAELHRLATLPRTETGSGSP-NH2 [Compound 31]
- pEC50 [1, 4]: 10.32
- pEC50 [2, 5]: 11.33
- pEC50 [3, 6]: 11.57

Substance: Y[Aib]EGTFTSDYSILLEEQAAREFIEWLLAGGPSGGEASHLSTAQTQRLSAELHK([AEEA-AEEA-γGlu-C18 diacid])LATLPRTETGSGSP-NH2 [Compound 74]
- pEC50 [1, 7]: 9.85
- pEC50 [1, 4]: 10.53
- pEC50 [2, 8]: 10.73
- pEC50 [2, 5]: 11.60
- pEC50 [3, 9]: 9.87
- pEC50 [3, 6]: 11.56

Substance: Y[Aib]EGTFTSDYSILLEEQAAREFIEWLLAGGPSSGAGQAPGQAPLASHLSTAQTARLSAELHK([AEEA-AEEA-γGlu-C18 diacid])LATLPRTETGSGSP-NH2 [Compound 98]
- pEC50 [1, 7]: 10.37
- pEC50 [1, 4]: 10.88
- pEC50 [2, 8]: 10.95
- pEC50 [2, 5]: 11.59
- pEC50 [3, 9]: 9.97
- pEC50 [3, 6]: 11.64

Substance: Y[Aib]EGTFTSDYSILLEEQAAREFIEWLLAGGPSSGAGQAPGQAPGASHLSTAQTARLSAELHK([AEEA-AEEA-γGlu-C18 diacid])LATLPRTETGSGSP-NH2 [Compound 113]
- pEC50 [1, 7]: 10.24
- pEC50 [1, 4]: 10.84
- pEC50 [2, 8]: 11.05
- pEC50 [2, 5]: 11.69
- pEC50 [3, 9]: 9.87
- pEC50 [3, 6]: 11.60

Substance: Y[Aib]EGTFTSDYSILLEEQAAREFIEWLLAGGPSSGAGQAPGQAPGASK([AEEA-AEEA-γGlu-C18 diacid])LSTAQTQRLSAELHRLATLPRTETGSGSP-NH2 [Compound 54]
- pEC50 ([1]; hGLP-1R Potency, no HSA, EC50, method A, absence of HSA): 10.54
- pEC50 ([2]; hGIPR Potency, no HSA, EC50, method A, absence of HSA): 11.25
- pEC50 ([3]; hAMYR3 Potency, no HSA, EC50, method A, absence of HSA): 11.52

Reference: patent US20260174875A1 (Novo Nordisk A/S, priority 2023, published 2026)
